Values of other authors in US20080044439A1, “Compositions and Methods for Preventing and Treating Skin and Hair Conditions” (priority 2004, published 2008).

Test system: albino guinea pigs

## CC(C)Cn1cnc2c(N)nc3ccccc3c21 [imiquimod]
5 percent cream applied every 6 hours for seven days, evaluated at seven and 28 days after tattoo placement, compared with petrolatum, tretinoin 0.025 percent, tretinoin alternated with imiquimod
  fading the tattoo, macroscopically and histologically: most effective regimen for fading the tattoo
Guinea pig, in vivo
  biopsy evaluation of the treated site: epidermal and dermal necrosis with separation, severe inflammation and fibrosis, and disruption of the skin appendages
